In US7745574B2, “Compounds that regulate apoptosis” (The Burnham Institute, priority 2005, dated 2010):
Where a SMILES comes first, the peptide text is derived from it. Bridges are numbered along the chain shown (N, C = ends). [ ]: non-standard residue; d: D form. The star is where a group is joined. FITC = O=C1OC2(c3ccc(O)cc3Oc3cc(O)ccc32)c2ccc(NC(=S)*)cc21; Ahx = NCCCCCC(=O)O

Tests used:
Bcl-2 [1] = molecular target: T1, Bcl-2 (Homo sapiens, UniProt P10415); assay: FP competition assay on Bcl-2; assay type: binding
Description: (§1) Fluorescence polarization (FP) assays. GST-Bcl-2, GST-Bcl-XL, or GST protein was briefly incubated with FITC-conjugated peptide with or without competitors in Greiner Fluotrac 600 96-well microplates. Fluorescence polarization was recorded using an Analyst HT 96-384 microplate reader (Molecular Devices, Sunnyvale, Calif.) with excitation wavelength set at 485 nm and dynamic polarizer for emission at 530 nm.
Target sequence in this assay (P10415 whole entry): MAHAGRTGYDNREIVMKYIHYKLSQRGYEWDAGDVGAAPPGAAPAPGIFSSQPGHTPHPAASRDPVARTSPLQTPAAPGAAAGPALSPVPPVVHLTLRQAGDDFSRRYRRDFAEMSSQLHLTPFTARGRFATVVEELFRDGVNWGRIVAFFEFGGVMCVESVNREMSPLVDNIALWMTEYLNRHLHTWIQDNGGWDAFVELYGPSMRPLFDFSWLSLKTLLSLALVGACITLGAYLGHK

GST-Bcl-2 [2] = molecular target: T2, GST-Bcl-2 (Homo sapiens, UniProt P10415); assay: Circular dichroism (CD) spectroscopy, GST-Bcl-2; assay type: binding
T2 construct: made in house
T2 sequence (P10415 whole entry): as above
Description: (§2) Circular dichroism (CD) spectroscopy. Stock solutions of 3 mM peptide in 30% acetonitrile/water were added to 0.5 mL of 2 μM purified GST-proteins in PBS, pH 7.6. CD spectra were obtained in a 0.2 cm pathlength cell at 20° C. using an AVIV 62 DS spectropolarimeter for a wavelength range from 200 to 260 nm with a step size of 1 nm averaged for 5 sec. Three spectra were corrected for background and averaged for each sample. The Kd was determined using nonlinear regression analysis for a one-site-binding model (χ2>0.98). Stoichiometry was determined from a […] (Jones, G. et al. 2002 Tet. Let. 43 :6079-6082).

Bcl-XL = Bcl-XL (Homo sapiens, UniProt Q07817); assay: Circular dichroism (CD) spectroscopy, Bcl-XL; assay type: binding
Chain of Bcl-XL (Q07817 whole entry, species assumed): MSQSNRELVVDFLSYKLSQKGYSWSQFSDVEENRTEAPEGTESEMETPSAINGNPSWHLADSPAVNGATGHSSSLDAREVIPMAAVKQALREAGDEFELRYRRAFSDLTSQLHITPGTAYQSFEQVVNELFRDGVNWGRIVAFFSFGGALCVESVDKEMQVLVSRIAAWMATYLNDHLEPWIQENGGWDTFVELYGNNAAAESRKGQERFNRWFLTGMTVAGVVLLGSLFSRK
Description: as §2

GST [3] = molecular target: T3, GST (Schistosoma japonicum, UniProt P08515); assay: Circular dichroism (CD) spectroscopy, GST; assay type: binding
T3 sequence (P08515 whole entry): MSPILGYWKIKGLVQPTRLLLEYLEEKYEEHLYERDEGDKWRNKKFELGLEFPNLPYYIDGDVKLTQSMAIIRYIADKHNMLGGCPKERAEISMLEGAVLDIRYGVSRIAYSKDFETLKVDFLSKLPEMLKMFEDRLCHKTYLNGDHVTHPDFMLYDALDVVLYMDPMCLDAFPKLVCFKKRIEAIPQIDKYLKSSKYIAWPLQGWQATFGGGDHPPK
Description: as §2

Jurkat or CEM cells = assay: Apoptosis in Jurkat or CEM cells stably expressing Bcl-2; assay type: cell-based
Description: Cell culture. H460 lung cancer cells were maintained in RPMI 1640 medium supplemented with 10% fetal bovine serum (FBS). HEK293T embryonic kidney cells were grown in DME medium supplemented with 10% FBS. Jurkat and Jurkat cells stably expressing Bcl-2 were kindly provided by Dr. John Reed, and they were maintained in RPMI1640 medium.

Bcl-2 [4] = molecular target: T1, Bcl-2; assay: Binding to Bcl-2, method not stated; design: precipitated endogenous Bcl-2 in cells treated with L-NuBCP-9-r8 or D-NuBCP-9-r8; endogenous in cells
Target sequence in this assay (P10415 whole entry, species assumed): as the sequence (P10415 whole entry) above

H460 lung cancer cells = assay: Apoptosis in H460 lung cancer cells; assay type: cell-based
GST-Bcl-2 [5] = molecular target: T2, GST-Bcl-2; assay: Fluorescence polarization (FP) assay, GST-Bcl-2; assay type: binding
Description: as §1

GST [6] = molecular target: T3, GST; assay: Fluorescence polarization (FP) assay, GST; assay type: binding
Description: as §1

GST-Bcl-XL = GST-Bcl-XL (Homo sapiens, UniProt Q07817); assay: Fluorescence polarization (FP) assay, GST-Bcl-XL; assay type: binding
Chain of GST-Bcl-XL (Q07817 whole entry, species assumed): as the sequence (Q07817 whole entry, species assumed) above
Description: as §1

Bcl-2 [7] = molecular target: T1, Bcl-2; assay: Co-immunoprecipitation with Bcl-2 in HEK293T cells; assay type: binding; design: expressed in transfected cells; host or cells: HEK293T
Description: Nur77 peptide binds anti-apoptotic Bcl-2 family members. Nur77-peptide binds Bcl-B, Bfl-1, and Bcl-2, but not Mcl-1 and Bcl-xL. […] The expression vector for the GFP-Nur77/489-497 fusion was transfected into HEK293T cells together with or without the indicated expression vector for myc-tagged Bcl-2 family member. Cell lysates were prepared and analyzed for interaction of Nur77/489-497 with Bcl-2 family members by co-immunoprecipitation assay using anti-Myc antibody. Immunoprecipitates were then separated on SDS/PAGE and immunoblotted using anti-GFP antibody. […] Nur77/Bcl-2 interaction assays—Reporter gene assays using NurRE-tk-CAT in CV-1 cells, and GST pull-down assay were described previously (Li, et al. 2000 Science 289:1159-1164). For the mammalian two-hybrid assays, CV-1 cells were co-transfected with pcDNA-Gal4TAD-Nur77 or pcDNA-Gal4TAD-Nur77/ΔDBD and pcDNA-Gal4 DBD-Bcl-2/ΔTM along with a luciferase reporter gene driven by four copies of the Gal-4-binding site. The cells were harvested and reporter gene activity was measured. For Co-IP assays, HEK293T cells were transiently transfected with various expression plasmids using a modified calcium phosphate precipitation method (Wu et al, 1997) in the presence of caspase inhibitors (zVAD-fmk) to prevent degradation of Nur77 protein due to apoptosis. Cells were suspended in lysis buffer (50 mM Tris-HCl, PH7.4; 150 mM NaCl; 20 mM EDTA; 1% NP-40; 1 mM PMSF; 50 μg/ml Leupeptin; […]; 0.1 mM Na3VO4; and 1 mM DTT). Cells extracts were cleared by incubation with the Protein A/G plus Agarose beads (Santa Cruz) and then incubated with appropriate antibody and 30 μl of Protein A or G plus Agarose beads overnight at 4° C. […] Immunoreactive products were detected by chemiluminescence with an enhanced chemiluminescence system (ECL) (Amersham).
Target sequence in this assay (P10415 whole entry): as the sequence (P10415 whole entry) above

[8] = test system: normal primary mammary epithelial cells; assay: Apoptosis in normal primary mammary epithelial cells; assay type: cell-based
Description: (§3) Apoptosis assays—For nuclear morphological change analysis, cells were trypsinized, washed with PBS, fixed with 3.7% paraformaldehyde, and stained with DAPI (4,6-diamidino-2-phenylindole) (50 μg/ml) to visualize the nuclei by UV-microscopy. The percentages of apoptotic cells were determined by counting 300 GFP-positive cells, scoring cells having nuclear fragmentation and/or chromatin condensation.

[9] = test system: various cancer cell lines; assay: Apoptosis in various cancer cell lines; assay type: cell-based
Description: as §3

[10] = test system: ZR-75-1 breast cancer cells; assay: Apoptosis in ZR-75-1 breast cancer cells; assay type: cell-based; conditions: <10 μM peptide
Description: as §3

Bcl-2 [11] = molecular target: T1, Bcl-2; assay: Immunoprecipitation of endogenous Bcl-2 by anti-Bcl-2/BH3 antibody in treated cells; assay type: cell-based; design: precipitated endogenous Bcl-2 in cells treated with L-NuBCP-9-r8 or D-NuBCP-9-r8; endogenous in cells
Target sequence in this assay (P10415 whole entry, species assumed): as the sequence (P10415 whole entry) above

Bcl-2 [12] = molecular target: T1, Bcl-2; assay: Bcl-2 conformational change, anti-Bcl-2/BH3 antibody staining of HEK293T cells transfected with Bcl-2; assay type: cell-based; design: expressed in transfected cells; host or cells: HEK293T; conditions: flow cytometry
Description: Such a Bcl-2 conformation is recognized by an anti-Bcl-2 antibody raised against the Bcl-2 BH3 domain. To determine whether NuBCP-9 induced a Bcl-2 conformational change, flow cytometric assays were conducted which HEK293T cells transfected with Bcl-2 were exposed to NuBCPs and subsequently stained with the anti-Bcl-2/BH3 antibody.
Target sequence in this assay (P10415 whole entry): as above

Compound: CN(C)CC[C@H](CSc1ccccc1)Nc1ccc(S(=O)(=O)NC(=O)c2ccc(N3CCN(Cc4ccccc4-c4ccc(Cl)cc4)CC3)cc2)cc1[N+](=O)[O-] [ABT-737, reference compound]
- competition for binding of FITC-L-NuBCP-9-r8 or FITC-D-NuBCP-9-r8 to Bcl-2 (Bcl-2 [1]): failure

Compound: CC(=O)N[C@@H](Cc1ccccc1)C(=O)N[C@@H](CO)C(=O)N[C@@H](CCCNC(=N)N)C(=O)N[C@@H](CO)C(=O)N[C@@H](CC(C)C)C(=O)N[C@@H](Cc1c[nH]cn1)C(=O)N[C@@H](CO)C(=O)N[C@@H](CC(C)C)C(=O)N[C@@H](CC(C)C)C(N)=O [NuBCP-9, FSRSLHSLL] (Ac-FSRSLHSLL-NH2)
- Kd (GST-Bcl-2 [2]): 2.1 ± 0.2 µM
- effect on CD spectra for Bcl-XL (Bcl-XL): no effect
- effect on CD spectra for GST (GST [3]): no effect
- competition for binding of FITC-L-NuBCP-9-r8 or FITC-D-NuBCP-9-r8 to Bcl-2 (Bcl-2 [1]): competed

Compound: CN[C@@H]1C[C@H]2O[C@@](C)([C@@H]1OC)n1c3ccccc3c3c4c(c5c6ccccc6n2c5c31)C(=O)NC4 [staurosporine]
- effect of stable expression of Bcl-2 on induced apoptosis/cell death (Jurkat or CEM cells): attenuated

Compound: Bad BH3 peptide-CC-Ant: Bad BH3 peptide, Ser replaced with Ala, disulfide-linked to Ant (Ac-NLWAAQRYGRELRRMADEFVDAFKKCCRQIKIWFQNRRMKWKK-NH2; disulfide 26-27; also: Bad BH3 peptide and Ant are two peptides joined by C26-C27 disulfide, no peptide bond)
- effect of stable expression of Bcl-2 on induced apoptosis/cell death (Jurkat or CEM cells): attenuated

Compound: D-Bad BH3 peptide-CC-Ant: D-enantiomer of Bad BH3 peptide, disulfide-linked to Ant (Ac-NLWAAQRYGRELRRMADEFVDAFKKCCRQIKIWFQNRRMKWKK-NH2; disulfide 26-27; not fully specified (some residues); also: D-amino acids, extent within chain not given here) [reference compound]
- binding to Bcl-2 (Bcl-2 [4]): did not bind
- apoptotic effect (H460 lung cancer cells; H460 cells, peptides conjugated with CPP, 10 μM): not apoptotic

Compound: FITC-NuBCP-9-r8: FITC-conjugated NuBCP-9-r8 peptide for FP assays ({FITC}-FSRSLHSLLG[Ahx][dR][dR][dR][dR][dR][dR][dR][dR]-NH2)
- FP of FITC-peptide induced by GST-Bcl-2 (GST-Bcl-2 [5]): concentration-dependent FP
- FP of FITC-peptide induced by GST (GST [6]): not
- FP of FITC-peptide induced by GST-Bcl-XL (GST-Bcl-XL): not

Compound: FITC-NuBCP-9/AA-r8: FITC-conjugated NuBCP-9/AA-r8 peptide ({FITC}-ASRSLHSLAG[Ahx][dR][dR][dR][dR][dR][dR][dR][dR]-NH2)
- FP of FITC-peptide induced by GST-Bcl-2 (GST-Bcl-2 [5]): little affected

Compound: NuBCP-9/AA: unconjugated NuBCP-9 with Ala substituted for the terminal amino acids (Ac-ASRSLHSLAG[Ahx][dR][dR][dR][dR][dR][dR][dR][dR]-NH2; SMILES CC(=O)N[C@@H](C)C(=O)N[C@@H](CO)C(=O)N[C@@H](CCCNC(=N)N)C(=O)N[C@@H](CO)C(=O)N[C@@H](CC(C)C)C(=O)N[C@@H](Cc1c[nH]cn1)C(=O)N[C@@H](CO)C(=O)N[C@@H](CC(C)C)C(=O)N[C@@H](C)C(=O)NCC(=O)NCCCCCC(=O)N[C@H](CCCNC(=N)N)C(=O)N[C@H](CCCNC(=N)N)C(=O)N[C@H](CCCNC(=N)N)C(=O)N[C@H](CCCNC(=N)N)C(=O)N[C@H](CCCNC(=N)N)C(=O)N[C@H](CCCNC(=N)N)C(=O)N[C@H](CCCNC(=N)N)C(=O)N[C@H](CCCNC(=N)N)C(N)=O)
- changes in GST-Bcl-2 protein CD spectra (GST-Bcl-2 [2]; peptide 30 μM, GST-Bcl-2 2 μM): not
- effect on CD spectra for Bcl-XL (Bcl-XL): no effect
- effect on CD spectra for GST (GST [3]): no effect
- competition for binding of FITC-L-NuBCP-9-r8 or FITC-D-NuBCP-9-r8 to Bcl-2 (Bcl-2 [1]): did not

Compound: acetyl---GDWIDSILAFSRSLHSLLVDKKC-X-rrrrrrrr (Ac-GDWIDSILAFSRSLHSLLVDKKC[Ahx][dR][dR][dR][dR][dR][dR][dR][dR]-NH2; also: Cys thiol joined to chloroacetyl-Ahx by thioether) [NuBCP-20-r8]
- interaction with Bcl-2 by co-immunoprecipitation (Bcl-2 [7]): binding
- apoptotic potency compared with BH3 peptides derived from t-Bid (H460 lung cancer cells): more potent
- apoptosis [8]: resistant
- apoptotic effects [9]: potent apoptotic effects
- apoptosis [10]: > 80%

Compound: t-Bid BH3 peptide-r8: BH3 peptide derived from pro-apoptotic Bcl-2 family member t-Bid, conjugated with r8 (Ac-EDIIRNIARHLAQVGDSMDRC[Ahx][dR][dR][dR][dR][dR][dR][dR][dR]-NH2; also: Cys thiol joined to chloroacetyl-Ahx by thioether) [reference compound]
- precipitation of endogenous Bcl-2 by anti-Bcl-2/BH3 antibody (Bcl-2 [11]): not
- Bcl-2 immunofluorescence by anti-Bcl-2/BH3 antibody (Bcl-2 [12]): did not show any Bcl-2 immunofluorescence
